Test results: US20240226228A1, “ANTIMICROBIAL PEPTOID HAVING IMPROVED SELECTIVITY AND ANTIMICROBIAL COMPOSITION COMPRISING SAME” (priority 2021, published 2024)
≈ marks a conversion by molar mass, not a printed value. Like-named read-outs stand apart in the source and are kept apart here. Where a SMILES comes first, the peptide text is derived from it. [ ]: non-standard residue; d: D form. Gly(N(CH2)2(3-indolyl)) = O=C(O)CNCCc1c[nH]c2ccccc12; Gly(N-CH2CH2-imidazol-4-yl) = O=C(O)CNCCc1c[nH]cn1; Nspe = C[C@H](NCC(=O)O)c1ccccc1; Nphe = O=C(O)CNCc1ccccc1; Nlys = NCCCCNCC(=O)O

Experiments:
E. coli ATCC25922 = test system: E. coli ATCC25922
Experimental: (§1) To measure the antimicrobial activity of the peptoids synthesized in Example 1, an E. coli ATCC25922 strain as gram-negative bacteria and an S. aureus KCTC25923 strain as gram-positive bacteris, were treated with the peptoids, followed by measuring the minimum inhibitory concentration (MIC). Peptoids 1 and 2 are antimicrobial peptoids known in the art, and used as controls for comparing antimicrobial activity with a novel peptoid.
(§2) Specifically, the S. aureus KCTC25923 or E. coli ATCC25922 strain was inoculated into a Mueller Hinton Broth (MHB2) liquid medium in which cations had been adjusted in the medium, cultured at 37° C. for 18 hours, subcultured, and then incubated for 4 hours. Afterward, for each bacterial strain, an optical density (OD, 0.001) was adjusted so that the bacterial count became 2×10^5 to 5×10^5 colony-forming units (CFU) per mL, which was then diluted with a MHB2 liquid medium containing 0.02% bovine serum albumin and 0.001% acetic acid, and dispensed at 100 μL into a 96-well microplate. Using sterile water, a peptoid stock 40 times stronger than a concentration to be tested was subjected to two-fold serial dilution and assessed at six different concentrations, and the maximum value of the peptoid concentrations was 25 μM. Subsequently, the plate was incubated at 37° C. for 24 hours. Afterward, optical density (OD) values at 600 nm were measured using a microplate reader (Bio-Rad).
(§3) Each MIC value was determined as the average value of a value obtained through three independent experiments.
(§4) Referring to Table 22, to measure the antimicrobial activity of the peptoids synthesized in Example 3, an MIC was measured by treating gram-negative bacteria, that is, the E. coli ATCC25922 strain, and gram-positive bacteria, that is, the S. aureus ATCC25923 strain, with the peptoids. Here, Peptoid 1 is a conventionally known antimicrobial peptoid, and Omiganan is a derivative of indolicidin, which is an antimicrobial peptide, under clinical development, and was used as a control for comparing antimicrobial activity with the novel peptoid.

S. aureus ATCC 25923 = test system: S. aureus ATCC 25923
Experimental: as §1, §2, §3, §4

red blood cells = test: Hemolysis assay; type: cell-based, Sprague-Dawley mouse
Outline: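 Peptoid is mixed with 10% (v/v) PBS-washed erythrocytes (male Sprague-Dawley […], 13 weeks) and held 1 h at 37 °C. Hemolysis is calculated from 540 nm absorbance of the supernatant, with PBS as 0% and Triton X-100 as 100%.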

[1] = Tables 11-13, 24 hours at 37° C., maximum concentration 25 μM
[2] = Table 18, TFA salt vs counter ion-substituted (HCl, AcOH) peptoids

MIC E. coli ATCC25922 (E. coli ATCC25922; ATCC25922) [µM] | MIC S. aureus ATCC 25923 (S. aureus ATCC 25923; ATCC 25923) [µM] | SMILES | MIC E. coli ATCC25922 (E. coli ATCC25922; [1]) [µM] | MIC S. aureus ATCC 25923 (S. aureus ATCC 25923; [1]) [µM] | HC10 (red blood cells) [µM] | HC50 (red blood cells) [µM] | Hmax (100 μM) (red blood cells) [%] | MIC E. coli ATCC25922 (E. coli ATCC25922; [2]) [µM] | MIC S. aureus ATCC 25923 (S. aureus ATCC 25923; [2]) [µM]
– | – | NCCCCNCC(=O)N(CC(=O)N(CC(=O)N(CCCCN)CC(=O)N(CC(=O)N(CC(=O)N(CCCCN)CC(=O)N(CC(=O)N(CC(=O)N(CCCCN)CC(=O)N(CC(=O)N(CC(N)=O)Cc1ccccc1)Cc1ccccc1)Cc1ccccc1)Cc1ccccc1)Cc1ccccc1)Cc1ccccc1)Cc1ccccc1)Cc1ccccc1 [Peptoid 2] (H-[Nlys][Nphe][Nphe][Nlys][Nphe][Nphe][Nlys][Nphe][Nphe][Nlys][Nphe][Nphe]-NH2) | 12.5 (≈ 21.3 µg/mL) | 3.1 (≈ 5.29 µg/mL) | 20.4 | > 100.0 | 17.7 ± 1.1 | – | –
– | – | C[C@@H](c1ccccc1)N(CC(=O)N(CCc1c[nH]c2ccccc12)CC(N)=O)C(=O)CN(CCCCN)C(=O)CN(C(=O)CN(C(=O)CN(CCCCN)C(=O)CN(C(=O)CN(C(=O)CN(CCCCN)C(=O)CN(C(=O)CN(C(=O)CNCCCCN)[C@@H](C)c1ccccc1)[C@@H](C)c1ccccc1)[C@@H](C)c1ccccc1)[C@@H](C)c1ccccc1)[C@@H](C)c1ccccc1)[C@@H](C)c1ccccc1 [Peptoid 7] (H-[Nlys][Nspe][Nspe][Nlys][Nspe][Nspe][Nlys][Nspe][Nspe][Nlys][Nspe][Gly(N(CH2)2(3-indolyl))]-NH2) | 6.3 (≈ 11.7 µg/mL) | 3.1 (≈ 5.76 µg/mL) | 7.8 | 23.8 | 94.1 ± 4.3 | – | –
– | – | C[C@@H](c1ccccc1)N(CC(N)=O)C(=O)CN(C(=O)CN(CCCCN)C(=O)CN(C(=O)CN(C(=O)CN(CCCCN)C(=O)CN(CCc1c[nH]c2ccccc12)C(=O)CN(C(=O)CN(CCCCN)C(=O)CN(C(=O)CN(C(=O)CNCCCCN)[C@@H](C)c1ccccc1)[C@@H](C)c1ccccc1)[C@@H](C)c1ccccc1)[C@@H](C)c1ccccc1)[C@@H](C)c1ccccc1)[C@@H](C)c1ccccc1 [Peptoid 9] | 3.1 (≈ 5.76 µg/mL) | 1.6 (≈ 2.97 µg/mL) | 10.6 | 31.9 | 106.4 ± 0.6 | – | –
– | – | C[C@@H](c1ccccc1)N(CC(N)=O)C(=O)CN(C(=O)CN(CCCCN)C(=O)CN(C(=O)CN(C(=O)CN(CCCCN)C(=O)CN(C(=O)CN(C(=O)CN(CCCCN)C(=O)CN(CCc1c[nH]c2ccccc12)C(=O)CN(C(=O)CNCCCCN)[C@@H](C)c1ccccc1)[C@@H](C)c1ccccc1)[C@@H](C)c1ccccc1)[C@@H](C)c1ccccc1)[C@@H](C)c1ccccc1)[C@@H](C)c1ccccc1 [Peptoid 10-1] | – | – | 15.3 | 37.8 | 81.5 ± 7.4 | 6.3 | 3.1
– | – | C[C@@H](c1ccccc1)N(CC(N)=O)C(=O)CN(C(=O)CN(CCCCN)C(=O)CN(C(=O)CN(C(=O)CN(CCCCN)C(=O)CN(C(=O)CN(C(=O)CN(CCCCN)C(=O)CN(CCc1c[nH]c2ccccc12)C(=O)CN(C(=O)CNCCCCN)[C@@H](C)c1ccccc1)[C@@H](C)c1ccccc1)[C@@H](C)c1ccccc1)[C@@H](C)c1ccccc1)[C@@H](C)c1ccccc1)[C@@H](C)c1ccccc1 [Peptoid 10-2] | – | – | 14.1 | 29.4 | 102.3 ± 11.3 | 6.3 | 1.6
– | – | C[C@@H](c1ccccc1)N(CC(=O)N(CCCCN)CC(=O)N(CC(=O)N(CC(=O)N(CCCCN)CC(=O)N(CC(=O)N(CC(=O)N(CCCCN)CC(=O)N(CCc1c[nH]c2ccccc12)CC(=O)N(CCc1c[nH]c2ccccc12)CC(N)=O)[C@@H](C)c1ccccc1)[C@@H](C)c1ccccc1)[C@@H](C)c1ccccc1)[C@@H](C)c1ccccc1)C(=O)CN(C(=O)CNCCCCN)[C@@H](C)c1ccccc1 [Peptoid 11-1] (H-[Nlys][Nspe][Nspe][Nlys][Nspe][Nspe][Nlys][Nspe][Nspe][Nlys][Gly(N(CH2)2(3-indolyl))][Gly(N(CH2)2(3-indolyl))]-NH2) | – | – | 10.1 | 21.5 | 113.9 ± 1.7 | 3.1 | 3.1
– | – | C[C@@H](c1ccccc1)N(CC(=O)N(CCCCN)CC(=O)N(CC(=O)N(CC(=O)N(CCCCN)CC(=O)N(CC(=O)N(CC(=O)N(CCCCN)CC(=O)N(CCc1c[nH]c2ccccc12)CC(=O)N(CCc1c[nH]c2ccccc12)CC(N)=O)[C@@H](C)c1ccccc1)[C@@H](C)c1ccccc1)[C@@H](C)c1ccccc1)[C@@H](C)c1ccccc1)C(=O)CN(C(=O)CNCCCCN)[C@@H](C)c1ccccc1 [Peptoid 11-2] (H-[Nlys][Nspe][Nspe][Nlys][Nspe][Nspe][Nlys][Nspe][Nspe][Nlys][Gly(N(CH2)2(3-indolyl))][Gly(N(CH2)2(3-indolyl))]-NH2) | – | – | 8.7 | 29.7 | 110.4 ± 0.2 | 3.1 | 1.6
– | – | C[C@@H](c1ccccc1)N(CC(N)=O)C(=O)CN(C(=O)CN(CCCCN)C(=O)CN(CCc1c[nH]c2ccccc12)C(=O)CN(CCc1c[nH]c2ccccc12)C(=O)CN(CCCCN)C(=O)CN(C(=O)CN(C(=O)CN(CCCCN)C(=O)CN(C(=O)CN(C(=O)CNCCCCN)[C@@H](C)c1ccccc1)[C@@H](C)c1ccccc1)[C@@H](C)c1ccccc1)[C@@H](C)c1ccccc1)[C@@H](C)c1ccccc1 [Peptoid 12] | 6.3 (≈ 12 µg/mL) | 1.6 (≈ 3.04 µg/mL) | 29.1 | 65.2 | 87.4 ± 2.4 | – | –
– | – | C[C@@H](c1ccccc1)N(CC(N)=O)C(=O)CN(C(=O)CN(CCCCN)C(=O)CN(C(=O)CN(C(=O)CN(CCCCN)C(=O)CN(CCc1c[nH]c2ccccc12)C(=O)CN(CCc1c[nH]c2ccccc12)C(=O)CN(CCCCN)C(=O)CN(C(=O)CN(C(=O)CNCCCCN)[C@@H](C)c1ccccc1)[C@@H](C)c1ccccc1)[C@@H](C)c1ccccc1)[C@@H](C)c1ccccc1)[C@@H](C)c1ccccc1 [Peptoid 13] | 6.3 (≈ 12 µg/mL) | <0.8 | 20.2 | 41.3 | 96.8 ± 1.6 | – | –
>25 | >25 | C[C@@H](c1ccccc1)N(CC(N)=O)C(=O)CN(CCCCN)C(=O)CN(CCCCN)C(=O)CN(CCc1c[nH]cn1)C(=O)CN(C(=O)CN(CCCCN)C(=O)CN(C(=O)CN(C(=O)CN(CCCCN)C(=O)CN(CCc1c[nH]c2ccccc12)C(=O)CN(CCc1c[nH]c2ccccc12)C(=O)CNCCCCN)[C@@H](C)c1ccccc1)[C@@H](C)c1ccccc1)[C@@H](C)c1ccccc1 [Peptoid 70] (H-[Nlys][Gly(N(CH2)2(3-indolyl))][Gly(N(CH2)2(3-indolyl))][Nlys][Nspe][Nspe][Nlys][Nspe][Gly(N-CH2CH2-imidazol-4-yl)][Nlys][Nlys][Nspe]-NH2) | – | – | – | – | – | – | –
>25 | >25 | C[C@@H](c1ccccc1)N(CC(=O)N(CCCCN)CC(=O)N(CC(=O)N(CC(=O)N(CCCCN)CC(=O)N(CCCCN)CC(=O)N(CCc1c[nH]cn1)CC(N)=O)[C@@H](C)c1ccccc1)[C@@H](C)c1ccccc1)C(=O)CN(C(=O)CN(CCCCN)C(=O)CN(CCc1c[nH]c2ccccc12)C(=O)CN(CCc1c[nH]c2ccccc12)C(=O)CNCCCCN)[C@@H](C)c1ccccc1 [Peptoid 71] (H-[Nlys][Gly(N(CH2)2(3-indolyl))][Gly(N(CH2)2(3-indolyl))][Nlys][Nspe][Nspe][Nlys][Nspe][Nspe][Nlys][Nlys][Gly(N-CH2CH2-imidazol-4-yl)]-NH2) | – | – | – | – | – | – | –
